From patent US4205067A, “Antibiotics” (priority 1974, dated 1980)
Structures can show the parent of a compound that is named as a salt.

How the values were obtained:
E. coli B11 = assay: MIC, serial dilution in nutrient agar, synergism with ampicillin; type: cell-based; conditions: alone
Proteus rettgeri R110 = assay: as above; type: cell-based; conditions: alone
Proteus mirabilis 889 = assay: as above; type: cell-based; conditions: alone
E. coli JT39 = assay: as above; type: cell-based; conditions: alone
Staph. aureus (Russell) = assay: as above; type: cell-based; conditions: alone
Proteus mirabilis 247 = assay: as above; type: cell-based; conditions: alone
[1] = tested on: Staph. aureus (Russell H); assay: as above; type: cell-based; conditions: alone
solubility = conditions: sodium salt
Klebsiella aerogenes = assay: bioautography zone diameter (cellulose TLC); type: cell-based; conditions: butanol/isopropyl alcohol/water 7:7:6
Escherichia coli 10418 = assay: bioautography zone diameter (cellulose TLC); type: cell-based; conditions: butanol/isopropyl alcohol/water 7:7:6
[2] = tested on: β-lactamase of Escherichia coli B11; assay: I50 determination: inhibition of hydrolysis of ampicillin by E. coli B11 β-lactamase (starch-iodometric assay); type: biochemical; conditions: MM 4550A
Description: This β-lactamase is classified as a type IIIa enzyme according to the classification of Richmond and Sykes [Adv. in Microbiol.Physiol. 9 31 (1973)]
The rate of β-lactamase hydrolysis of ampicillin to its penicilloic acid can be followed by a starch-iodometric assay in which one measures the rate of formation of penicilloic acid by following the decolorization of a starch-iodine complex. This method and the preparation of the β-lactamase are described in a paper by Cole M., Elson S., and Fullbrook P.D. (Biochemical Journal 1972, 127, 295-308). […] The procedure was as follows:
Buffer: 0.05M pH7 potassium phosphate buffer
Prepared from E. coli B11 as described by Cole
Enzyme: et al, Biochem. J. (1972) 127, 295. The dilution
of the enzyme preparation in buffer was such as
to give a fall of about 0.3 optical density
units per 100 secs. in the uninhibited reaction.
The reactions were carried out in 1 cm cuvettes at 37° C. in an SP 800 Pye Unicam spectrophotometer. This instrument can carry four sample cuvettes and their corresponding blanks. The first cuvette was used for the control reaction and contained no inhibitor. The 2nd, 3rd and 4th cuvettes were used for various dilutions of the inhibitor.
Inhibitor of buffer 0.1 ml 0.1 ml
Substrate (added after incubation […]

[3] = tested on: various species including strains of Staphylococcus aureus, Bacillus subtilis, Escherichia coli, Klebsiella aerogenes, Proteus mirabilis; assay: antibacterial activity (qualitative); type: cell-based, various bacterial species; conditions: sodium salt, inter alia S. aureus, B. subtilis, E. coli, K. aerogenes, P. mirabilis
[4] = tested on: Escherichia coli, Klebsiella aerogenes, Proteus mirabilis, Proteus morganii and Staphylococcus aureus Russell; assay: synergy with ampicillin (qualitative); type: cell-based
[5] = tested on: Staphylococcus aureus (Russell); assay: bioautography zone diameter (cellulose TLC); type: cell-based; conditions: butanol/isopropyl alcohol/water 7:7:6
[6] = tested on: β-lactamases produced by Klebsiella aerogenes; assay: β-lactamase inhibition (qualitative); type: biochemical
[7] = tested on: B. subtilis, Staphylococcus aureus, Escherichia coli, Salmonella typhimurium, Proteus mirabilis, Proteus morganii and Klebsiella aerogenes; assay: detection by bioautography after cellulose TLC (qualitative); type: cell-based, various bacterial species; conditions: n-butanol:isopropanol:water 7:7:6
Bacillus subtilis = assay: bioautography zone diameter (cellulose TLC); type: cell-based; conditions: butanol/isopropyl alcohol/water 7:7:6
[8] = target: β-lactamases produced by Staphylococcus aureus (Staphylococcus aureus, UniProt P00807); assay: β-lactamase inhibition (qualitative); type: biochemical
[9] = tested on: Staphylococcus aureus (Oxford); assay: bioautography zone diameter (cellulose TLC); type: cell-based; conditions: butanol/isopropyl alcohol/water 7:7:6
Proteus morganii = assay: bioautography zone diameter (cellulose TLC); type: cell-based; conditions: butanol/isopropyl alcohol/water 7:7:6
Enterobacter aerogenes = assay: bioautography zone diameter (cellulose TLC); type: cell-based; conditions: butanol/isopropyl alcohol/water 7:7:6
[10] = target: Escherichia coli β-lactamase (Escherichia coli, UniProt P62593); assay: β-lactamase inhibition (qualitative); type: biochemical
Description: In a further experiment, the two substances were separated on a cellulose thin layer developed with isopropanol:water (8:2) and extracted from the cellulose with phosphate buffer.

[11] = specific activity relative to culture filtrate (arbitrary units)
Protocol: The material produced above was arbitrarily assigned an activity of 340 1/ml. Assays were determined as described in Description 3.

stability = type: physicochemical; conditions: monobasic salts and free acid

Chain of β-lactamases produced by Staphylococcus aureus (P00807 25-281): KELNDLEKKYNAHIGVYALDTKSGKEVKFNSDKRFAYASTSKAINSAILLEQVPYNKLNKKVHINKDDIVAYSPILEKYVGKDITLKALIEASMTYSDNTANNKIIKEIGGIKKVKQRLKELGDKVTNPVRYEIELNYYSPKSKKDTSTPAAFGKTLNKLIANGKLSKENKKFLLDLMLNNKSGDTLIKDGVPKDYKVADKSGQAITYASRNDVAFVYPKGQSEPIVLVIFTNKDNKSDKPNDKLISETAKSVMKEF
Chain of Escherichia coli β-lactamase (P62593 24-286 limits assumed): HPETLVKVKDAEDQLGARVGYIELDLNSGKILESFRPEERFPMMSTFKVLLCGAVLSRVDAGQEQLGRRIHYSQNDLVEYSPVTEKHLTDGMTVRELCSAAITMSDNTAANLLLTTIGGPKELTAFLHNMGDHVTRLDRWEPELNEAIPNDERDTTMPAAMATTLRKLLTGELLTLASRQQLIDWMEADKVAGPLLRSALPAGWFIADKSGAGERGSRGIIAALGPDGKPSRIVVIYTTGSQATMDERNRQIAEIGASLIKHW

## CC1(C)S[C@@H]2[C@H](NC(=O)[C@H](N)c3ccccc3)C(=O)N2[C@H]1C(=O)O [Ampicillin, ampicillin]
E. coli B11
  minimum inhibitory concentration: > 500
Proteus rettgeri R110
  minimum inhibitory concentration: 250
Proteus mirabilis 889
  minimum inhibitory concentration: > 500
E. coli JT39
  minimum inhibitory concentration: > 500
Staph. aureus (Russell)
  minimum inhibitory concentration: 250
Proteus mirabilis 247
  minimum inhibitory concentration: > 500
[1]
  minimum inhibitory concentration: > 500

## CC(=O)N/C=C/[S+]([O-])C1=C(C(=O)O)N2C(=O)C(C(C)OS(=O)(=O)O)C2C1 (stereo not shown) [MM 4550A]
solubility
  solubility in chloroform, diethylether and hydrocarbons: substantially insoluble
  solubility in methanol: soluble
  solubility in water: highly soluble
Klebsiella aerogenes
  Zone Diameter on Bioautography: 20.0 mm
Escherichia coli 10418
  Zone Diameter on Bioautography: 20.0 mm
[2]
  I50: less than 0.0001 μg/ml
[3]; Acinetobacter anitratus, Serratia, Shigella sonnei
  antibacterial activity against various species: possesses antibacterial activity
[4]
  synergy when mixed with ampicillin: synergyses its activity
[5]
  Zone Diameter on Bioautography: 12.0 mm
[6]
  enzyme inhibitory activity against β-lactamase: possesses enzyme inhibitory activity
[7]
  detection by bioautography: may be detected by bioautography on a variety of organisms
Bacillus subtilis
  Zone Diameter on Bioautography: 24.0 mm
[8]
  enzyme inhibitory activity against β-lactamase: possesses enzyme inhibitory activity
[9]
  Zone Diameter on Bioautography: 13.0 mm
Proteus morganii
  Zone Diameter on Bioautography: 16.0 mm
Enterobacter aerogenes
  Zone Diameter on Bioautography: 6.5 mm
[10]
  enzyme inhibitory activity against β-lactamase: possesses enzyme inhibitory activity

## CC(=O)N/C=C/SC1=C(C(=O)O)N2C(=O)C(C(C)OS(=O)(=O)O)C2C1 (stereo not shown) [MM 13902]
solubility
  solubility in chloroform, diethylether and hydrocarbons: substantially insoluble
  solubility in methanol: soluble
  solubility in water: highly soluble
[3]; Salmonella typhi, Ps. aeruginosa
  antibacterial activity against various species: possessed antibacterial activity
[4]
  synergy when mixed with ampicillin: synergizes its activity
[11]; partially purified, after Amberlite XAD 4
  activity: 37,000 units/mg
[7]
  detection by bioautography: may be detected by bioautography on a variety of organisms
stability
  stability to isolation from mixtures such as MM 4550 (Complex): not sufficiently stable to isolate from mixtures
Enterobacter aerogenes
  Zone Diameter on Bioautography: No Zone

## CC(=O)N/C=C/SC1=C(C(=O)O)N2C(=O)C(C(C)OS(=O)(=O)O)C2C1 (stereo not shown) [MM 13902 di-sodium salt]
[11]; after cellulose chromatography, yellowish powder
  activity: 73,000 units/mg
